# Measurements reported in patent US20110158930A1, “METHOD FOR TREATMENT OF IRRITABLE BOWEL SYNDROME” (ASTELLAS PHARMA INC., priority 2008, published 2011).
# Columns and labels:
# [1] = tested on: restraint stress induced diarrhea in rats; test: Restraint stress induced diarrhea in rats; type: in vivo, rat
# Protocol: Ramosetron hydrochloride, polycarbophil calcium (Astellas Pharma, Inc.) and 5-HT creatinine sulfate (Wako Pure Chemical Industries Ltd.) were used. Ramosetron was dissolved and diluted with distilled water. Polycarbophil was prepared by decalcification of polycarbophil calcium according to a reported method (Yamada et al., Iyakuhin Kenkyu 1997; 28: 23-32), and suspended and diluted with distilled water. In this experiment, ramosetron was used and expressed as its hydrochloride form. All the test substances were orally administered in a dose of 12 mL/kg. In combined administration of ramosetron and polycarbophil, a mixed solution of the two drugs was prepared and this was orally administered. Male Wistar rats (13 to 14-week age, Japan SLC Inc.) that had been fasted overnight were stressed by confinement in a restraint stress cage (KN-468, Natsume Seisakusho Co., Ltd.) (Hirata et al., Neurogastroenterol. Motil. 2008; 20: 557-565). The condition of the stool excreted within 3 hours after the initiation of the restraint stress was observed, and the occurrence of diarrhea was defined in case where the excreted stool condition was wet, amorphous and muddy stool. […] All the results were statistically analyzed using Statistical Analysis System ver. […] In this experiment, all the data were expressed as two significant figures. In the investigation using the diarrheal models, the incidence of diarrhea was calculated in each group, then the significance was evaluated according to the Fisher's exact test, and if desired, the significance level was corrected according to the Bonferroni's method for consideration of multiplicity (the case of P<0.05 or P<0.05/3 was given significance). In the experiments of spontaneous defecation, the mean value of total stool weight±SEM was calculated in every group, and the significance was evaluated according to Student's t-test (between two groups) or Dunnett's multiple comparison test (between multiple groups) (the case of P<0.05 was given significance).
# [2] = tested on: 5-HT induced diarrhea in mice; test: 5-HT induced diarrhea in mice; type: in vivo, mouse
# Protocol: (§1) Ramosetron hydrochloride, polycarbophil calcium (Astellas Pharma, Inc.) and 5-HT creatinine sulfate (Wako Pure Chemical Industries Ltd.) were used. Ramosetron was dissolved and diluted with distilled water. Polycarbophil was prepared by decalcification of polycarbophil calcium according to a reported method (Yamada et al., Iyakuhin Kenkyu 1997; 28: 23-32), and suspended and diluted with distilled water. In this experiment, ramosetron was used and expressed as its hydrochloride form. All the test substances were orally administered in a dose of 12 mL/kg. In combined administration of ramosetron and polycarbophil, a mixed solution of the two drugs was prepared and this was orally administered.
# Each test substance was orally administered to male ICR mice (9-week age, Clea Japan, Inc.), and after 2 hours, 5-HT (3 mg/kg) was intraperitoneally administered (Miyata et al., J. Pharmacol. Exp. Ther. 1992; 261: 297-303). The mice were put individually in separate cages, and the condition of the stool excreted within 3 hours after the 5-HT administration was observed. The occurrence of diarrhea was defined in case where the excreted stool condition was loose stool (wet pasty stool) or watery stool (amorphous muddy stool). […]
# All the results were statistically analyzed using Statistical Analysis System ver. […] In this experiment, all the data were expressed as two significant figures. In the investigation using the diarrheal models, the incidence of diarrhea was calculated in each group, then the significance was evaluated according to the Fisher's exact test, and if desired, the significance level was corrected according to the Bonferroni's method for consideration of multiplicity (the case of P<0.05 or P<0.05/3 was given significance). In the experiments of spontaneous defecation, the mean value of total stool weight±SEM was calculated in every group, and the significance was evaluated according to Student's t-test (between two groups) or Dunnett's multiple comparison test (between multiple groups) (the case of P<0.05 was given significance).
# [3] = tested on: spontaneous defecation in mice; test: Spontaneous defecation in mice (total stool weight); type: in vivo, mouse; details: ddy mice
# Protocol: as §1
# In this experiment, male ddy mice (Nippon SLC, 5-week age) were used. Spontaneous defecation was measured individually in separate cages with a wire flooring under free drinking and free feeding condition. […]
# The effect of single administration of ramosetron or polycarbophil alone was investigated with the following group composition, and the total stool weight in 2 hours after administration of each test substance was measured (n=10 in every group): Distilled water administration group (control group); ramosetron administration group (10, 30 and 100 μg/kg); polycarbophil administration group (100, 300 and 1,000 mg/kg). […]
# All the results were statistically analyzed using Statistical Analysis System ver. […]
compound,measurement,setting,value
"Cn1cc(C(=O)[C@@H]2CCc3nc[nH]c3C2)c2ccccc21 [ramosetron, (−)-(R)-5-[(1-methyl-1H-indol-3-yl)carbonyl]-4,5,6,7-tetrahydro-1H-benzimidazole]",incidence of diarrhea,"[1]; ramosetron 0.3 μg/kg p.o. alone, 4 hours before restraint stress, stool within 3 hours, Wistar rats, n=24",46%
same,effect on restraint stress induced diarrhea,"[1]; ramosetron 0.1 to 1 μg/kg p.o. alone, n=12",dose-dependently inhibited
same,significance of inhibition of restraint stress induced diarrhea vs distilled water,"[1]; ramosetron 0.3 and 1 μg/kg p.o. alone, n=12, Fisher's exact test",significant inhibitory effect
same,incidence of diarrhea,"[2]; ramosetron 30 μg/kg p.o. alone, 2 hours before 5-HT 3 mg/kg i.p., stool within 3 hours, ICR mice, n=24",58%
same,effect on 5-HT induced diarrhea,"[2]; ramosetron 10 to 100 μg/kg p.o. alone, n=12",dose-dependently inhibited
same,significance of inhibition of 5-HT induced diarrhea vs distilled water,"[2]; ramosetron 30 and 100 μg/kg p.o. alone, n=12, Fisher's exact test",significant inhibitory effect
same,total stool weight in 2 hours vs distilled water group,"[3]; ramosetron 100 μg/kg p.o. single administration alone, n=10, Dunnett's test",significant reduction in the total stool weight
same,effect on spontaneous defecation (total stool weight in 2 hours),"[3]; ramosetron 10 to 100 μg/kg p.o. single administration alone, n=10",dose-dependently inhibited spontaneous defecation
